The results in this text go back to BindingDB's records for doi:10.1016/j.bmcl.2005.12.040 (Celera, 2006).

Structures are written as SMILES.

The test addresses T1, Coagulation factor VII (Homo sapiens, UniProt P08709).
T1 sequence (P08709 whole entry): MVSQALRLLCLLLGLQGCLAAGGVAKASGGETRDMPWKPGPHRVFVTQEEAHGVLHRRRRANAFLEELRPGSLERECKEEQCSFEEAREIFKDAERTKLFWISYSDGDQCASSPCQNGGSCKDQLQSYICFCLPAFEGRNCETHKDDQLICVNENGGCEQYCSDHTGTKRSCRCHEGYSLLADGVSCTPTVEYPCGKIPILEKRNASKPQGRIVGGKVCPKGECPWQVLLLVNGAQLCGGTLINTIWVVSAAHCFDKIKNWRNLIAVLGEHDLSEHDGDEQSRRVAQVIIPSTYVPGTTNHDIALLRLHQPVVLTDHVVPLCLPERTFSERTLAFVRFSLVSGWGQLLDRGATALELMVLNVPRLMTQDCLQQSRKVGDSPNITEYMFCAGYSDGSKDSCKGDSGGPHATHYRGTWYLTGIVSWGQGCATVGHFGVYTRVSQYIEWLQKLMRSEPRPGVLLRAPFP
Briefly: Enzyme Inhibition Assay. The protocol:
The enzyme reactions were initiated by the addition of substrate, and the color developed from the release of p-nitroanilide from each chromogenic substrate was monitored at 405 nm using a Thermomax kinetic plate reader (Molecular Devices). […] The apparent Ki values were then calculated according to the Cheng-Prusoff equation: Ki = IC50/1 + [S]/Km.

Take `N=C(N)c1ccc2nc(-c3cc(C(CC(=O)O)C(=O)O)cc(-c4ccc(CO)s4)c3O)[nH]c2c1` (stereo not given) [2-[3-(5-carbamimidoyl-1H-1,3-benzodiazol-2-yl)-4-hydroxy-5-[5-(hydroxymethyl)thiophen-2-yl]phenyl]butanedioic acid]: the affinity, expressed as Ki, was 130 nM.

`CC(=O)N(c1cccc(C)c1)c1cc(C(CC(=O)O)C(=O)O)cc(-c2nc3ccc(C(=N)N)cc3[nH]2)c1O` (stereo not given) [2-[3-(5-carbamimidoyl-1H-1,3-benzodiazol-2-yl)-4-hydroxy-5-[N-(3-methylphenyl)acetamido]phenyl]butanedioic acid]: the inhibition constant (Ki) worked out at 54 nM.

On to `N=C(N)c1ccc2nc(-c3cc(C(CC(=O)O)C(=O)O)cc(-c4cccc(C5CCOC(=O)O5)c4)c3O)[nH]c2c1` (stereo not given) [2-[3-(5-carbamimidoyl-1H-1,3-benzodiazol-2-yl)-4-hydroxy-5-[3-(2-oxo-1,3-dioxan-4-yl)phenyl]phenyl]butanedioic acid], for which the Ki stood at 280 nM.

The molecule `CSc1ccccc1-c1cc(C(CC(=O)O)C(=O)O)cc(-c2nc3ccc(C(=N)N)cc3[nH]2)c1O` (stereo not given) [2-[3-(5-carbamimidoyl-1H-1,3-benzodiazol-2-yl)-4-hydroxy-5-[2-(methylsulfanyl)phenyl]phenyl]butanedioic acid] displayed a Ki of 64 nM.

In turn, `N=C(N)c1ccc2nc(-c3cc(C(CC(=O)O)C(=O)O)cc(-c4ccc(Cl)s4)c3O)[nH]c2c1` (stereo not given) [2-[3-(5-carbamimidoyl-1H-1,3-benzodiazol-2-yl)-5-(5-chlorothiophen-2-yl)-4-hydroxyphenyl]butanedioic acid] registered a Ki of 110 nM.
